The IC50 is the midpoint of a concentration-inhibition curve. The term CC50 denotes the concentration that lowers cell viability or growth by half. Higher therefore signals lower toxicity to the cells.

For one series, the system named is HBsAg. Description: PHH natural infection assay, HBsAg (alphalisa). It is filed as cell-based, HBV. As to conditions: Hepatitis B virus, Hepatocyte, 72 h, read-out: HBsAg IC50. As for the experimental part: (§1) Detailed procedures regarding primary human hepatocyte (PHH) HBV natural infection assay are described as below. One tube of frozen PHH (10 million cells) is thawed in 37° C. water bath and then transferred to 20 mL of PHH thawing medium (Sigma, InVitroGRO HT Medium, Cat. S03319) with gently mixing. The cells were then centrifuged at […] for 5 min, the supernatant was discarded and the tube was refilled with 25 mL of PHH plating medium (Sigma, InVitroGRO CP Medium, Cat. S03317). The tube was shaken very gently to re-suspend all cells, and then 50 μl of cells were transferred to each well 384-well collagen I coated plate with appropriate liquid handling equipment, e.g. Integra VIAFLO384 or Agilent Bravo. The cells were then cultured for 24 hours in a cell incubator. For HBV infection, after PHH attachment on the culture plate, the plating medium was removed and replenished with PHH culture medium containing HBV virus. The PHH culture medium was prepared with Dulbecco's Modified Eagle Medium (DMEM)/F12 (1:1 in volume ratio) containing 10% fetal bovine serum (Gibco, Cat. 10099141), 5 ng/mL human epidermal growth factor (Gibco, Cat.PHG031IL), 20 ng/mL dexamethasone (Sigma, Cat.D4902-100 mg), 250 ng/mL human recombinant insulin (Gibco, Cat.41400045) and 100 U/mL penicillin. HBV virus at 200 genome equivalent (GE) per cell with 4% PEG8000 (Sigma, Cat.P1458) containing culture medium were added to the PHH culture medium for infection. The cells were then cultured for 24 hours in cell incubator. Then the cell culture supernatant was removed. The HBV-infected PHH were cultured with sandwich culture method with PHH culture medium containing 1% DMSO and 0.25 mg/mL matrix gel for 72 hours. The supernatant was then refreshed with PHH culture medium containing different concentrations of testing compounds for two times with 72-hour interval. At the end of treatment, the supernatant was collected for viral markers measurements, including HBsAg, HBeAg, HBV DNA and cytotoxicity. HBsAg and HBeAg were detected using alphalisa method using their specific antibodies. For HBV DNA detection, HBV DNA Quantitative Fluorescence Diagnostic Kit (Sansure Biotech Inc.) was used following the manufacture's protocol. Cytotoxicity was determined using Cell Counting Kit-8 (CCK8, Dojindo Molecular Technologies, Inc.).
(§2) The compounds of the present invention were tested for their capacity to inhibit HBsAg and HBeAg as described herein.

Series [1] can be described thus: Cytotoxicity in PHH natural infection assay (Cell Counting Kit-8). The series is classed as cell-based. As to conditions: HBV-infected primary human hepatocytes, CCK8. As for the experimental part:
as §1

In the next series the test system is HBeAg. Kind of series: PHH natural infection assay, HBeAg (alphalisa). The series is classed as cell-based, HBV. As to conditions: Hepatitis B virus, Hepatocyte, 72 h, read-out: HBeAg IC50. The method, then:
as §1, §2
Background: Alpha assays give light when donor and acceptor beads are brought close together.

On to `Nc1ccc2nn(-c3cccc(Cl)c3)nc2c1` [Example 1, 2-(3-Chlorophenyl)benzotriazol-5-amine], for which the IC50 came to 1.2 µM in the series with HBsAg and 1.8 µM with HBeAg. This molecule also registered a CC50 at 144 h in series [1] of over 100 µM.
The corresponding values for `Nc1ccc2nn(-c3ccc(Cl)cc3)nc2c1` [Example 2, 2-(4-Chlorophenyl)benzotriazol-5-amine] are 7.97 µM, 5.29 µM and over 100 µM.
Turning to `COc1ccc(-n2nc3ccc(N)cc3n2)cc1` [Example 3, 2-(4-Methoxyphenyl)benzotriazol-5-amine], the figures for the IC50 in the series with HBsAg and with HBeAg were 1.5 µM and 1.7 µM, respectively. In series [1], this molecule came in with a CC50 at 144 h of over 100 µM.
Consider `Nc1ccc2nn(-c3ccc(F)cc3)nc2c1` [Example 4, 2-(4-Fluorophenyl)benzotriazol-5-amine], for which the values for the IC50 in the series on HBsAg and in the series on HBeAg were 5.04 µM and 5.29 µM, respectively. This molecule also had a CC50 at 144 h in series [1] of over 100 µM.
With `Nc1ccc2nn(-c3cccc(F)c3)nc2c1` [Example 5, 2-(3-Fluorophenyl)benzotriazol-5-amine], the IC50 with HBsAg came out at 3.57 µM; with HBeAg it was 6.72 µM. The CC50 at 144 h in series [1] was over 100 µM.
Consider `COc1cccc(-n2nc3ccc(N)cc3n2)c1` [Example 6, 2-(3-Methoxyphenyl)benzotriazol-5-amine], for which the values for the IC50 in the series on HBsAg and in the series with HBeAg were 2.44 µM and 4.1 µM, respectively. For the same molecule, in series [1], the CC50 at 144 h is over 100 µM.
On to `CS(=O)(=O)c1ccc(-n2nc3ccc(N)cc3n2)cc1` [Example 7, 2-(4-Methylsulfonylphenyl)benzotriazol-5-amine], for which the half-inhibitory concentration (IC50) with HBsAg was 5.67 µM; with HBeAg it was 3.21 µM. Moreover, in series [1], the CC50 at 144 h is over 100 µM.
The corresponding values for `CCS(=O)(=O)c1ccc(-n2nc3ccc(N)cc3n2)cc1` [Example 8, 2-(4-Ethylsulfonylphenyl)benzotriazol-5-amine] are 6.32 µM, 6.26 µM and over 100 µM.
For `COCCS(=O)(=O)c1ccc(-n2nc3ccc(N)cc3n2)cc1` [Example 9, 2-[4-(2-Methoxyethylsulfonyl)phenyl]benzotriazol-5-amine] the same measures were 4.07 µM, 7.93 µM and over 100 µM.
The corresponding values for `CC(C)CS(=O)(=O)c1ccc(-n2nc3ccc(N)cc3n2)cc1` [Example 10, 2-(4-Isobutylsulfonylphenyl)benzotriazol-5-amine] are 9.57 µM, 5.56 µM and over 100 µM.
`Cc1cc(N)cc2nn(-c3ccc(Cl)cc3)nc12` [Example 11, 2-(4-Chlorophenyl)-7-methyl-benzotriazol-5-amine]: the IC50 with HBsAg was 2.66 µM; in the series on HBeAg, 3.89 µM. Further, in series [1], the CC50 at 144 h was over 100 µM.
The corresponding values for `CNc1ccc2nn(-c3ccc(Cl)cc3)nc2c1` [Example 12, 2-(4-Chlorophenyl)-N-methyl-benzotriazol-5-amine] are 1.83 µM, 2.44 µM and over 100 µM.
For `CCNc1ccc2nn(-c3ccc(Cl)cc3)nc2c1` [Example 13, 2-(4-Chlorophenyl)-N-ethyl-benzotriazol-5-amine] the same measures were 1.3 µM, 1.6 µM and over 100 µM.
For the molecule `CCCNc1ccc2nn(-c3ccc(Cl)cc3)nc2c1` [Example 14, 2-(4-Chlorophenyl)-N-propyl-benzotriazol-5-amine], the results for the IC50 in the series with HBsAg and with HBeAg were 2.92 µM and 3.97 µM, respectively. The same molecule yielded a CC50 at 144 h in series [1] of over 100 µM.
For `COCCNc1ccc2nn(-c3ccc(Cl)cc3)nc2c1` [Example 15, 2-(4-Chlorophenyl)-N-(2-methoxyethyl)benzotriazol-5-amine] the same measures were 3.71 µM, 2.36 µM and over 100 µM.
For the molecule `c1ccc(-n2nc3ccc(NC4CCCC4)cc3n2)cc1` [Example 16, N-cyclopentyl-2-phenyl-benzotriazol-5-amine], the results for the IC50 in the series on HBsAg and with HBeAg were 9.25 µM and 15.8 µM, respectively. The molecule also yielded a half-maximal cytotoxic concentration (CC50) at 144 h in series [1] of over 100 µM.
For `COCCNc1ccc2nn(-c3cccc(OC)c3)nc2c1` [Example 17, N-(2-methoxyethyl)-2-(3-methoxyphenyl)benzotriazol-5-amine] the same measures were 8.06 µM, 15.4 µM and over 100 µM.
For `COCCNc1ccc2nn(-c3cccc(Cl)c3)nc2c1` [Example 18, 2-(3-Chlorophenyl)-N-(2-methoxyethyl)benzotriazol-5-amine] the same measures were 4.5 µM, 6.83 µM and over 100 µM.
As to `COCCNc1ccc2nn(-c3ccc(S(C)(=O)=O)cc3)nc2c1` [Example 19, N-(2-methoxyethyl)-2-(4-methylsulfonylphenyl)benzotriazol-5-amine], the values for the 50% inhibitory concentration (IC50) with HBsAg and with HBeAg were 8.94 µM and 6.97 µM, respectively. For the same molecule, the CC50 at 144 h in series [1] was over 100 µM.
The corresponding values for `Fc1ccc(-n2nc3ccc(NCC4CCOC4)cc3n2)cc1` (stereo not drawn) [Example 20, 2-(4-Fluorophenyl)-N-(tetrahydrofuran-3-ylmethyl)benzotriazol-5-amine] are 5.66 µM, 7.3 µM and over 100 µM.
The corresponding values for `Fc1ccc(-n2nc3ccc(NC4CCOC4)cc3n2)cc1` (stereo not drawn) [Example 21, 2-(4-Fluorophenyl)-N-tetrahydrofuran-3-yl-benzotriazol-5-amine] are 9.74 µM, 10.6 µM and over 100 µM.
For `COCCCNc1ccc2nn(-c3ccc(F)cc3)nc2c1` [Example 22, 2-(4-Fluorophenyl)-N-(3-methoxypropyl)benzotriazol-5-amine] the same measures were 3.27 µM, 6.4 µM and over 100 µM.
Turning to `Clc1ccc(-n2nc3ccc(NCC4CCOC4)cc3n2)cc1` (stereo not drawn) [Example 23, 2-(4-Chlorophenyl)-N-(tetrahydrofuran-3-ylmethyl)benzotriazol-5-amine], the IC50 was 4.92 µM with HBsAg and 7.67 µM in the series with HBeAg. In series [1], the CC50 at 144 h is over 100 µM.
In the case of `Clc1ccc(-n2nc3ccc(NCC4CCC4)cc3n2)cc1` [Example 24, 2-(4-Chlorophenyl)-N-(cyclobutylmethyl)benzotriazol-5-amine], the values for the 50% inhibitory concentration (IC50) in the series on HBsAg and in the series with HBeAg were 7.72 µM and 8.9 µM, respectively. The CC50 at 144 h in series [1] was over 100 µM.
With `Clc1ccc(-n2nc3ccc(NCC4CC4)cc3n2)cc1` [Example 25, 2-(4-Chlorophenyl)-N-(cyclopropylmethyl)benzotriazol-5-amine], the figures for the IC50 in the series on HBsAg and in the series with HBeAg were 5.95 µM and 7.52 µM, respectively. In series [1], the CC50 at 144 h was over 100 µM.
For `Clc1ccc(-n2nc3ccc(NCC4CCCC4)cc3n2)cc1` [Example 26, 2-(4-Chlorophenyl)-N-(cyclopentylmethyl)benzotriazol-5-amine] the same measures were 8.79 µM, 3.08 µM and over 100 µM.
Consider `Clc1ccc(-n2nc3ccc(NCC4CCCO4)cc3n2)cc1` (stereo not drawn) [Example 27, 2-(4-Chlorophenyl)-N-(tetrahydrofuran-2-ylmethyl)benzotriazol-5-amine], for which the IC50 was 6.07 µM in the series on HBsAg and 11.7 µM with HBeAg. The molecule also yielded a CC50 at 144 h in series [1] of over 100 µM.

(Values after US20230286927A1, “2-PHENYLBENZOTRIAZOL-5-AMINE DERIVATIVES FOR THE TREATMENT AND PROPHYLAXIS OF HEPATITIS B VIRUS (HBV) INFECTION” (priority 2020, published 2023).)
